Here are results for 11 compounds from patent US11077196B2, “Abuse-deterrent pharmaceutical composition” (priority 2016, dated 2021).

“Also recorded” adds a separate entry of the source.

In series [1] the test system is laccase. In words: Laccase mediator system (LMS) and oxycodone: oxygen concentration measurement. The class given is biochemical. The settings on record: 10 units laccase ml−1, 1000 mgL−1 oxycodone; for oxygen concentration after the addition of oxycodone, per mediator: mediator 2 mM. As to the method: During the reaction oxygen acts as electron acceptor and is reduced to water by laccases while the mediators are oxidized. The concentration of oxygen was measured as described above. Oxygen is consumed until the mediator is fully oxidized. […] The second step of the reaction is initiated by addition of the target substrate, which is consequently oxidized by the mediators.
In the present experiments the final reaction mixtures contained 0.2 to 6 mM mediator, 1-10 units of laccase per ml and 100-3000 mg L^−1 opioid.
The different mediators were used at concentrations of 2 mM with 10 units laccase ml^−1 and 1000 mgL^−1 oxycodone. The first drop in oxygen concentration represents the oxidation of the respective mediators with the laccase, the second drop—which took place just after the addition of the opioid—was due to the subsequent oxidation of the opioid.

The subject of series [2] is laccase from Myceliophthora thermophila (MtL). In words: Oxygen measurement of laccase catalysed oxidation of opioids (MtL). The class given is biochemical. Particulars: MtL 10 U/ml, substrate 2 mg/ml, distilled water, room temperature, optical oxygen sensor.
Description: (§1) Two different laccases were used to achieve elimination of opioids—one of them originated from Trametes villosa (TvL), the other one from Myceliophthora thermophila (MtL).
Series [3] concerns laccase from Trametes villosa (TvL). In words: Oxygen measurement of laccase catalysed oxidation of opioids (TvL). The class given is biochemical. Particulars: TvL 10 U/ml, substrate 2 mg/ml, distilled water, room temperature, optical oxygen sensor.
Description: as §1
In series [4] the test system is horseradish peroxidase and a laccase originating from Myceliophthora thermophila (MtL). In words: Inactivation of oxycodone with an enzyme system consisting of peroxidase/laccase. Format: biochemical. The settings on record: HRP 10 U/ml, Glucose Oxidase 20 U/ml, Laccase 25 U/ml, Oxycodone 10 mg/ml, Glucose 10 mg/ml, distilled water, room temperature. From the text: In the present example, the development of an appropriate enzyme system to eliminate opioids from solution can be shown. A peroxidase is used to produce an hydroxyl group in oxycodone while the such “activated” molecule is further transformed by the laccase. Moreover, optimized reaction conditions for effective conversion of the opioid solution preventing administration through injection are provided. Finally, the function of the system is verified by showing the inactivation of the opioid destroying enzymes proteolytically when the drugs are administered as foreseen.
To achieve the elimination of oxycodone, the following enzymes are used: the horseradish peroxidase and a laccase originating from Myceliophthora thermophila (MtL). Glucose Oxidase (GOD, from Aspergillus niger) is used to generate H2O2 which is required for the peroxidase reaction.
To determine whether the laccase act on activated oxycodone an optical oxygen sensor is used. Laccases use oxygen as electron acceptor, consequently the oxygen concentration decreases upon substrate oxidation.
500 μL samples are taken and put into 500 μL of methanol (MeOH) to precipitate the enzyme. The solution is centrifuged using Vivaspin 500 and transferred to an HPLC vial.

The test system of series [5] is laccase. As to the kind of experiment: LMS and oxycodone: HPLC-MS/TOF measurements. The settings on record: laccase mediator system.
Series [6] addresses T1, pepsin (Sus scrofa, UniProt P00791).
T1 construct: purchased Sigma-Aldrich (US) P7000
As to the kind of experiment: Pepsin digestion assay in simulated gastric fluid with SDS-PAGE analysis. The class given is in vitro ADME. Particulars: SGF pH 1.2 with pepsin, 10000 Units pepsin per 1 mg test protein, 37° C., samples at 0, 0.5, 15 minutes. As to the method: SGF contains 0.084 M HCl, 0.035 M NaCl, 4000 U of pepsin per reaction mixture and has a pH level of 1.2 according to the United States Pharmacopeia (1995). A ratio of 10000 Units of pepsin activity to 1 mg of test protein was used throughout the assay, which is based on an evaluation of the average activity of pepsin recommended in the United States Pharmacopeia (24th edition, 2000) with some modifications. Pepsin (ref. #P7000) was purchased from Sigma-Aldrich (US). All proteins that were used were dissolved in 50 mM Tris-HCl (pH 9.5) at a concentration of 5 mg mL^−1. The reaction mixture contained 1.52 mL of SGF preheated to 37° C. before the addition of 0.08 mL of protein solution (Thomas et al., 2004). The mixture was placed into a thermomixer at 37° C. and was shaken at 400 rpm. For denaturating SDS-polyacrylamide gel electrophoresis analysis (SDS-PAGE) samples of 160 μl were removed at 0 minutes, 0.5 minutes, and 15 minutes after initiation.
SDS-PAGE was performed to analyze and visually inspect stained protein bands whether the protein band is still intact or fragmented after the digestion assay. […]
Each 160 μl of the digestion samples was quenched by adding 56 μl of 200 mM NaHCO3 as neutralization step and 56 μl 4× Laemmli (Laemmli 1970) buffer for electrophoresis. Samples were immediately heated up to 99° C. for 10 minutes and analyzed directly or stored at −20° C. […]

The test system of series [7] is laccase. As to the kind of experiment: LMS and methadone: oxygen measurements. Format: biochemical.
The test system of series [8] is laccase. As to the kind of experiment: Thin layer chromatography of enzymatic conversion. The class given is biochemical. Particulars: samples at 2, 10, 30, 60, 120 minutes of enzymatic reaction.
Series [9] concerns Humicola insolens cutinase (HiC). The class given is biochemical.
Series [10] concerns the target T2, Thermobifida cellulosilytica cutinase 1 (THC) (Thermobifida cellulosilytica, UniProt E9LVH8).
T2 construct: made in house
T2 sequence (E9LVH8 1-262): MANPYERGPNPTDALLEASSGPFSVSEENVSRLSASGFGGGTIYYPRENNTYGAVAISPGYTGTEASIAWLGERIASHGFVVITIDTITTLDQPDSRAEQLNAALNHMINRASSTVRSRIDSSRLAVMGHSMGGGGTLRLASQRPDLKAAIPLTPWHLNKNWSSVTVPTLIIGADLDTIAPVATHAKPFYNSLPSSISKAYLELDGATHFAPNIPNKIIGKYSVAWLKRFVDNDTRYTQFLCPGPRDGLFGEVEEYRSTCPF
The class given is biochemical.

The subject of series [11] is laccase MTL. As to the kind of experiment: Polymerization of morphine with laccase from Myceliophthora thermophila (high concentrations). The settings on record: 50 mM sodium phosphate buffer pH 7, MTL 10 U to 100 U.

T1 sequence (P00791 60-385): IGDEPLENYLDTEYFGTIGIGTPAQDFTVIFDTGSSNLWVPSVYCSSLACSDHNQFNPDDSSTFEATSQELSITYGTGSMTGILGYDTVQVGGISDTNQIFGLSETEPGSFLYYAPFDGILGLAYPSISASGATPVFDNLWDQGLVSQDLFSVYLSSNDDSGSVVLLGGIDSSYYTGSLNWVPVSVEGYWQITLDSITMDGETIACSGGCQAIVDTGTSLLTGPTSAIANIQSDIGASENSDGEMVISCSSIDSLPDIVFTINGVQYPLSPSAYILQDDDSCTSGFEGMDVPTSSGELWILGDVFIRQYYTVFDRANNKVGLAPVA

As to `COc1cc(C=O)ccc1O` [vanillin], in series [1], the “oxygen concentration after the addition of oxycodone, per mediator” value (shortened to “oxygen concentration … per mediator”) was “showed a drop in oxygen concentration”.
Still for that read-out and setting: the value for `CCOc1cc(C=O)ccc1O` [ethylvanillin] was “showed a drop in oxygen concentration”.
In the case of `COc1ccc2c3c1O[C@H]1C(=O)CC[C@@]4(O)[C@@H](C2)N(C)CC[C@]314` [oxycodone, 4,5[alpha]-epoxy-14-hydroxy-3-methoxy-17-methyl-6-morphinanone], the “oxygen concentration in solution (laccase oxidation of the opioid)” value (shortened to “oxygen concentration in solution”) in series [2] and in series [3] was “not capable of converting oxycodone” in each case. Moreover, the “enzymatic conversion of oxycodone (oxygen consumption measurements, HPLC-MS)” value in [4] is “successfully converted; also recorded: converted to a product which precipitated”. Also, the “oxidation of oxycodone in the laccase mediator system” value in series [1] (mediators vanillin, ethylvanillin, syringic acid 2 mM) is listed as “oxidation of oxycodone”. The “oxycodone concentration (HPLC-MS/TOF)” value in series [5] (mediators 2 mM, vanillin also 6 mM) is given as “decrease in oxycodone concentration”.
As to HRP: horse radish peroxidase, the “proteolytic degradation of the enzyme (protein band on SDS-PAGE)” value in [6] is reported as “very susceptible to proteolytic degradation”.
For `O=C(O)c1cc(O)c(O)c(O)c1` [gallic acid], the “oxygen concentration … per mediator” value in series [1] is listed as “no apparent effect”. Besides, in series [5], the “effect of the mediator on oxycodone (MS-TOF analysis)” value was “no apparent effect”.
For `CCC(=O)C(CC(C)N(C)C)(c1ccccc1)c1ccccc1` (racemic) [methadone, (±)-6-dimethylamino-4,4-diphenol-3-heptanone], the “oxygen concentration in LMS with methadone” value in series [7] (mediator ABTS) is recorded as “decline in oxygen concentration”.
For `CCn1c(=NN=c2sc3cc(S(=O)(=O)O)ccc3n2CC)sc2cc(S(=O)(=O)O)ccc21` [ABTS, 2,2′-azino-bis-(3-ethylbenzthiazoline-6-sulfonic acid)], the “effect of the mediator in LMS with methadone (oxygen measurement)” value in series [7] (mediators tested incl. syringic acid, TEMPO, syringol, ABTS) is “best effect”.
Take `CC[C@@H](c1cccc(O)c1)[C@@H](C)CN(C)C` [tapentadol]: the “oxygen concentration in solution” value in series [2] is on record as “much slower”. Moreover, the “oxygen concentration in solution” value in series [3] is reported as “drops to almost 0% oxygen”. Further, in [8], the “time after which new dots appear on the TLC plate (new product formed)” value came to 2 min and the “time after which the reference dot disappears on TLC (all converted)” value was determined as 120 min.
As for `COc1cc(C(=O)O)cc(OC)c1O` [syringic acid], the “oxygen concentration … per mediator” value in [1] is “showed a drop in oxygen concentration”.
Regarding `CC(=O)Oc1ccc2c3c1O[C@H]1[C@@H](OC(C)=O)C=C[C@H]4[C@@H](C2)N(C)CC[C@@]341` [diacetylmorphine], in series [9], the DAM concentration entry is “declines”, the “morphine concentration formed from DAM” value is “only increased in the samples that were incubated at 50 °C” and the “product formed from DAM at lower temperatures” value is listed as “only monoacetylmorphine is produced”. The “diacetylmorphine hydrolyzed (total acetate yield, HPLC/RI)” value in series [9] (pH 7) was “more than 50%”. Moreover, in series [10], the DAM concentration result is reported as “declines”, the “morphine concentration formed from DAM” value is “only increased in the samples that were incubated at 50 °C” and the “product formed from DAM at lower temperatures” value was “only monoacetylmorphine is produced”. For the same compound, the “diacetylmorphine hydrolyzed (total acetate yield, HPLC/RI)” value in [10] (pH 7) is “more than 50%”.
As to `CN1CC[C@]23c4c5ccc(O)c4O[C@H]2[C@@H](O)C=C[C@H]3[C@H]1C5` [morphine, 4,5[alpha]-epoxy-17-methyl-7-morphinen-3,6[alpha]-diol], the “time after which new dots appear on the TLC plate (new product formed)” value in series [8] came to 2 min. Also, in series [11], the “faster degradation of morphine with 10 times more laccase” value is on record as roughly 10 times.
